The source of these data is patent publication US8829007B2 (priority 2009, dated 2014).

Molecules are shown by their SMILES.

Experiment [1] has as its system influenza A virus (A/PR/8/34). Put plainly: microbe, parasite or virus in culture. It is filed as cell-based. The settings on record: Influenza A virus, PR/8, MDCK, MDCK cells infected with A/PR/8/34; survival of infected cells; class symbols; read-out: IC50 (mean all).
Experiment [2] concerns A/PR/8/34 influenza virus. Kind of experiment: microbe, parasite or virus in culture. It is filed as cell-based. The settings on record: Influenza A virus, PR/8, MDCK, MDCK cells infected with A/PR/8/34; replication of influenza virus (viral RNA, bDNA); class symbols; read-out: EC50 (mean all).

In general, IC50 refers to the concentration that gives 50% inhibition. In general, EC50 refers to the midpoint of the concentration-response curve.

`CNC(=O)N1CCCC(Nc2nc(-c3c[nH]c4ncc(Cl)cc34)ncc2F)CC1` (centres unmarked) [Compound 506, 4-(2-(5-chloro-1H-pyrrolo[2,3-b]pyridin-3-yl)-5-fluoropyrimidin-4-ylamino)-N-methylazepane-1-carboxamide]: the IC50 in experiment [1] is less than 5 µM. Besides, the concentration giving a half-maximal response (EC50) in experiment [2] was less than 5 µM.
For the compound `NC(=O)N1CCC[C@H](Nc2nc(-c3c[nH]c4ncc(Cl)cc34)ncc2F)C1` [Compound 507], the IC50 in experiment [1] was less than 5 µM. Further, the EC50 in experiment [2] was less than 5 µM.
Consider `NC(=O)N1CCCC(Nc2nc(-c3c[nH]c4ncc(Cl)cc34)ncc2F)CC1` (centres unmarked) [Compound 509, 4-(2-(5-chloro-1H-pyrrolo[2,3-b]pyridin-3-yl)-5-fluoropyrimidin-4-ylamino)azepane-1-carboxamide], for which the half-inhibitory concentration (IC50) in experiment [1] was less than 5 µM. In experiment [2], the EC50 is less than 5 µM.
Turning to `NC(=O)N1CC(Nc2nc(-c3c[nH]c4ncc(Cl)cc34)ncc2F)C1` [Compound 512], the IC50 in experiment [1] is greater than 20 µM. Moreover, the EC50 in experiment [2] was in the range of 5 to 10 µM.
Regarding `O=C1NCCOCC1Nc1nc(-c2c[nH]c3ncc(Cl)cc23)ncc1F` (centres unmarked) [Compound 513, 6-(2-(5-chloro-1H-pyrrolo[2,3-b]pyridin-3-yl)-5-fluoropyrimidin-4-ylamino)-1,4-oxazepan-5-one], in experiment [1], the IC50 lay within 5 to 20 µM. In addition, the EC50 in experiment [2] is less than 5 µM.
The like results for `OC1CCCC(Nc2nc(-c3c[nH]c4ncc(Cl)cc34)ncc2F)C1` [Compound 524, (3S)-3-((2-(5-chloro-1H-pyrrolo[2,3-b]pyridin-3-yl)-5-fluoropyrimidin-4-ylamino)cyclohexanol] were, in that order, less than 5 µM and less than 5 µM.
In the same order, the values of `OCC(O)CN1CCCC(Nc2nc(-c3c[nH]c4ncc(Cl)cc34)ncc2F)C1` [Compound 525, 3-((S)-3-((2-(5-chloro-1H-pyrrolo[2,3-b]pyridin-3-yl)-5-fluoropyrimidin-4-ylamino)piperidin-1-yl)propane-1,2-diol] are less than 5 µM and less than 5 µM.
The like results for `COC(=O)N1CCOCC1CNc1nc(-c2c[nH]c3ncc(Cl)cc23)ncc1F` (centres unmarked) [Compound 526, Methyl 3-((2-(5-chloro-1H-pyrrolo[2,3-b]pyridin-3-yl)-5-fluoropyrimidin-4-ylamino)methyl)morpholine-4-carboxylate] were, in that order, 5 to 20 µM and less than 5 µM.
`CCOC(=O)N1CCOCC1CNc1nc(-c2c[nH]c3ncc(Cl)cc23)ncc1F` (centres unmarked) [Compound 527, Ethyl 3-((2-(5-chloro-1H-pyrrolo[2,3-b]pyridin-3-yl)-5-fluoropyrimidin-4-ylamino)methyl)morpholine-4-carboxylate]: the IC50 in experiment [1] was greater than 20 µM. The concentration giving a half-maximal response (EC50) in experiment [2] is greater than 10 µM.
The like results for `C=CCOC(=O)N1CCOCC1CNc1nc(-c2c[nH]c3ncc(Cl)cc23)ncc1F` (centres unmarked) [Compound 528, Allyl 3-((2-(5-chloro-1H-pyrrolo[2,3-b]pyridin-3-yl)-5-fluoropyrimidin-4-ylamino)methyl)morpholine-4-carboxylate] were, in that order, 5 to 20 µM and greater than 10 µM.
The like results for `CC(C)C(=O)N1CCOCC1CNc1nc(-c2c[nH]c3ncc(Cl)cc23)ncc1F` (centres unmarked) [Compound 529, 1-(3-((2-(5-chloro-1H-pyrrolo[2,3-b]pyridin-3-yl)-5-fluoropyrimidin-4-ylamino)methyl)morpholino)-2-methylpropan-1-one] were, in that order, 5 to 20 µM and greater than 10 µM.
In the same order, the values of `CC(C)(C)C(=O)N1CCOCC1CNc1nc(-c2c[nH]c3ncc(Cl)cc23)ncc1F` (centres unmarked) [Compound 530, 1-(3-((2-(5-chloro-1H-pyrrolo[2,3-b]pyridin-3-yl)-5-fluoropyrimidin-4-ylamino)methyl)morpholino)-2,2-dimethylpropan-1-one] are greater than 20 µM and 5 to 10 µM.
For `O=C(C1CCC1)N1CCOCC1CNc1nc(-c2c[nH]c3ncc(Cl)cc23)ncc1F` (centres unmarked) [Compound 531, (3-((2-(5-chloro-1H-pyrrolo[2,3-b]pyridin-3-yl)-5-fluoropyrimidin-4-ylamino)methyl)morpholino)(cyclobutyl)methanone], the IC50 in experiment [1] was in the range of 5 to 20 µM. The 50% effective concentration (EC50) in experiment [2] is less than 5 µM.
In the same order, the values of `CS(=O)(=O)N1CCOCC1CNc1nc(-c2c[nH]c3ncc(Cl)cc23)ncc1F` (centres unmarked) [Compound 532, 2-(5-chloro-1H-pyrrolo[2,3-b]pyridin-3-yl)-5-fluoro-N-((4-(methylsulfonyl)morpholin-3-yl)methyl)pyrimidin-4-amine] are 5 to 20 µM and less than 5 µM.
In the same order, the values of `O=S(=O)(C1CC1)N1CCOCC1CNc1nc(-c2c[nH]c3ncc(Cl)cc23)ncc1F` (centres unmarked) [Compound 533, 2-(5-chloro-1H-pyrrolo[2,3-b]pyridin-3-yl)-N-((4-(cyclopropylsulfonyl)morpholin-3-yl)methyl)-5-fluoropyrimidin-4-amine] are 5 to 20 µM and less than 5 µM.
As for `NC(=O)N1CCOCC1CNc1nc(-c2c[nH]c3ncc(Cl)cc23)ncc1F` (centres unmarked) [Compound 534, 3-((2-(5-chloro-1H-pyrrolo[2,3-b]pyridin-3-yl)-5-fluoropyrimidin-4-ylamino)methyl)morpholine-4-carboxamide], the 50% inhibitory concentration (IC50) in experiment [1] was 5 to 20 µM. Moreover, the half-maximal effective concentration (EC50) in experiment [2] was less than 5 µM.
In the same order, the values of `CCNC(=O)N1CCOCC1CNc1nc(-c2c[nH]c3ncc(Cl)cc23)ncc1F` (centres unmarked) [Compound 535, 3-((2-(5-chloro-1H-pyrrolo[2,3-b]pyridin-3-yl)-5-fluoropyrimidin-4-ylamino)methyl)-N-ethylmorpholine-4-carboxamide] are 5 to 20 µM and greater than 10 µM.
In the same order, the values of `CC(C)NC(=O)N1CCOCC1CNc1nc(-c2c[nH]c3ncc(Cl)cc23)ncc1F` (centres unmarked) [Compound 536, 3-((2-(5-chloro-1H-pyrrolo[2,3-b]pyridin-3-yl)-5-fluoropyrimidin-4-ylamino)methyl)-N-isopropylmorpholine-4-carboxamide] are 5 to 20 µM and greater than 10 µM.
In the same order, the values of `COCC(O)CN1CCCC(Nc2nc(-c3c[nH]c4ncc(Cl)cc34)ncc2F)C1` [Compound 537, 1-((S)-3-((2-(5-chloro-1H-pyrrolo[2,3-b]pyridin-3-yl)-5-fluoropyrimidin-4-ylamino)piperidin-1-yl)-3-methoxypropan-2-ol] are less than 5 µM and less than 5 µM.
In the case of `CC[C@H](O)CN1CCCC(Nc2nc(-c3c[nH]c4ncc(Cl)cc34)ncc2F)C1` (some centres unmarked) [Compound 538], in experiment [1], the half-inhibitory concentration (IC50) is less than 5 µM. Further, in experiment [2], the half-maximal effective concentration (EC50) is less than 5 µM.
Regarding `NC1CCCC(Nc2nc(-c3c[nH]c4ncc(Cl)cc34)ncc2F)C1` (stereo not drawn) [Compound 540, N-[2-(5-chloro-1H-pyrrolo[5,4-b]pyridin-3-yl)-5-fluoro-pyrimidin-4-yl]cyclohexane-cis-1,3-diamine], in experiment [1], the half-inhibitory concentration (IC50) is less than 5 µM. For the same compound, in experiment [2], the EC50 is less than 5 µM.
Regarding `N[C@H]1CCC[C@@H](Nc2nc(-c3c[nH]c4ncc(Cl)cc34)ncc2F)C1` [Compound 542, (1R,3S)—N1-[2-(5-chloro-1H-pyrrolo[2,3-b]pyridin-3-yl)-5-fluoro-pyrimidin-4-yl]cyclohexane-1,3-diamine], in experiment [1], the IC50 fell in the range of 5 to 20 µM. Further, in experiment [2], the concentration giving a half-maximal response (EC50) fell in the range of 5 to 10 µM.
In the same order, the values of `O=C(O)[C@H]1CCCC[C@@H]1Nc1nc(-c2c[nH]c3ncc(Cl)cc23)ncc1F` [Compound 553, (1S,2S)-2-[[2-(5-chloro-1H-pyrrolo[5,4-b]pyridin-3-yl)-5-fluoro-pyrimidin-4-yl]amino]cyclohexane-1-carboxylic acid] are less than 5 µM and less than 5 µM.
The like results for `CCOC(=O)[C@@H]1CCCC[C@H]1Nc1nc(-c2c[nH]c3ncc(Cl)cc23)ncc1F` [Compound 560, (1R,2R)-ethyl 2-(2-(5-chloro-1H-pyrrolo[2,3-b]pyridin-3-yl)-5-fluoropyrimidin-4-ylamino)cyclohexanecarboxylate] were, in that order, greater than 10 µM and greater than 10 µM.
The like results for `CCOC(=O)[C@H]1CCCC[C@@H]1Nc1nc(-c2c[nH]c3ncc(Cl)cc23)ncc1F` [Compound 561, (1S,2S)-ethyl 2-(2-(5-chloro-1H-pyrrolo[2,3-b]pyridin-3-yl)-5-fluoropyrimidin-4-ylamino)cyclohexanecarboxylate] were, in that order, 5 to 20 µM and less than 5 µM.
Regarding `CC1(O)CCCCC1Nc1nc(-c2c[nH]c3ncc(Cl)cc23)ncc1F` (centres unmarked) [Compound 562, 2-(2-(5-chloro-1H-pyrrolo[2,3-b]pyridin-3-yl)-5-fluoropyrimidin-4-ylamino)-1-methylcyclohexanol], in experiment [1], the half-maximal inhibitory concentration (IC50) is greater than 10 µM. Further, the concentration for a half-maximal effect (EC50) in experiment [2] is less than 5 µM.
The like results for `O=C(O)[C@H]1CC[C@@H](Nc2nc(-c3c[nH]c4ncc(Cl)cc34)ncc2F)C1` [Compound 565] were, in that order, 5 to 20 µM and less than 5 µM.
The like results for `O=C(O)[C@@H]1CC[C@H](Nc2nc(-c3c[nH]c4ncc(Cl)cc34)ncc2F)C1` [Compound 566] were, in that order, less than 5 µM and less than 5 µM.
In the same order, the values of `NC(=O)CN1CCC[C@H](Nc2nc(-c3c[nH]c4ncc(Cl)cc34)ncc2F)C1` [Compound 567] are less than 5 µM and less than 5 µM.
In the case of `CC(C)OC(=O)[C@@H]1CCCC[C@H]1Nc1nc(-c2c[nH]c3ncc(Cl)cc23)ncc1F` [Compound 568, (1R,2R)-isopropyl 2-(2-(5-chloro-1H-pyrrolo[2,3-b]pyridin-3-yl)-5-fluoropyrimidin-4-ylamino)cyclohexanecarboxylate], the 50% inhibitory concentration (IC50) in experiment [1] is greater than 10 µM. Besides, the EC50 in experiment [2] was greater than 10 µM.
On to `CC(C)OC(=O)[C@H]1CCCC[C@@H]1Nc1nc(-c2c[nH]c3ncc(Cl)cc23)ncc1F` [Compound 569, (1S,2S)-isopropyl 2-(2-(5-chloro-1H-pyrrolo[2,3-b]pyridin-3-yl)-5-fluoropyrimidin-4-ylamino)cyclohexanecarboxylate], for which, in experiment [1], the 50% inhibitory concentration (IC50) was greater than 10 µM. For the same compound, the half-maximal effective concentration (EC50) in experiment [2] was greater than 10 µM.
